{"source": "patent US20030229048A1", "about": "“Methods and compositions for inhibition of irritation by disaccharide and metal ions” (priority 2002, published 2003)", "assay_type_in_all_cases": "cell-based, Human", "key": {"IL-1α [1]": {"tested_on": "IL-1α", "experiment": "IL-1α release (ELISA) in keratinocyte cells stimulated with methyl salicylate", "details": "for inhibition of MS induced IL-1α release: summary statement", "description": "(§1) Reagents methyl salicylate, ethacrynic acid, trehalose A, B, and C were obtained from Sigma-Aldrich (St. Louis, Mo.). Trehaloses were dissolved in keratinocyte media. Methyl salicylate was diluted in keratinocyte media. Ethacrynic acid was dissolved in DMSO. Keratinocyte cells were grown to 100% confluency as per the instructions given by ATCC. Then the cells were trypsinized to dislodge cells and spun at 3000 rpm for 3 min. The supernatant was aspirated and the cells were re-suspended in fresh media at a density of 1.0×10^6 cells per mL. The cell suspension was the pipetted into a 96-well plate (200 ul of per well) and cells were incubated overnight at 37° C. The next day morning media was aspirated, and 100 uL of fresh medium containing methyl salicylate (2%) was added to all the wells except for the (−) control wells. No MS was included in the (−) control wells. Then 100 uL of medium containing the various test reagents were added to the wells so that the final concentrations were as indicated in FIGS. 2-7. The 96-well plate was then incubated. After incubation for four hours at 36° C., the supernatant from the wells was transferred to centrifuge tubes and centrifuged to remove the cell debris. Then the presence of IL-1α was determined using ELISA kit (R&D systems, Inc.) as per the manufacturer's specifications. The cells remaining in the wells were treated with pre-warmed media containing MTT solution and incubated for four hours. Then the formazan product (metabolic product of MTT) in the wells was solubilized and the absorbance was measured using a plate reader.\nHuman keratinocytes were stimulated with MS in the absence or the presence of trehalose compounds, to find an optimal concentration of trehalose at which IL- 1α production is reduced by half compared to the positive control."}, "IL-1α [2]": {"tested_on": "IL-1α", "experiment": "IL-1α release (ELISA) in keratinocyte cells stimulated with methyl salicylate", "details": "substance alone; earlier work of the applicant"}, "Keratinocyte cells": {"tested_on": "Keratinocyte cells", "experiment": "MTT assay, cytotoxicity / cell viability of keratinocyte cells", "description": "as §1, with “After incubation for four hours at 36° C., the supernatant from the wells was transferred to centrifuge tubes and centrifuged to remove the cell debris.” left out, “The cells remaining in the wells were treated with pre-warmed media containing MTT solution and incubated for four hours.” left out, “reader. […]” for “reader.”"}}}
{"smiles": "C=C(CC)C(=O)c1ccc(OCC(=O)O)c(Cl)c1Cl", "note": "[Ethacrynic Acid, reference compound]", "values": [{"measurement": "inhibition of MS induced IL-1α release", "setting": "IL-1α [1]; concentration not given", "result": "inhibited the IL-1α release by MS"}, {"measurement": "reduction in IL-1α levels compared to MS 1% (positive control)", "setting": "IL-1α [1]; test substance at 0.16%, FIG. 2", "result": "over 50%"}]}
{"smiles": "COC(=O)c1ccccc1O", "note": "[MS, Methyl Salicylate]", "values": [{"measurement": "release of primary cytokines, especially IL-1α, in epidermal keratinocytes", "setting": "IL-1α [2]", "result": "stimulates release"}]}
{"smiles": "OC[C@H]1O[C@H](O[C@H]2O[C@H](CO)[C@@H](O)[C@H](O)[C@H]2O)[C@H](O)[C@@H](O)[C@@H]1O", "note": "[Trehalose A, trehalose]", "values": [{"measurement": "effect on IL-1α levels, MS stimulated", "setting": "IL-1α [1]; low concentrations of 0.1-2.5%", "result": "neither trehalose A nor B showed any effect"}, {"measurement": "inhibition of MS induced IL-1α release", "setting": "IL-1α [1]; concentration not stated, listed as trehalose A", "result": "capable of inhibiting MS induced IL-1α release"}, {"measurement": "reduction in IL-1α levels compared to MS 1% (positive control)", "setting": "IL-1α [1]; test substance at 2.5%, FIG. 2", "result": "no effect"}, {"measurement": "reduction in IL-1α levels compared to MS 1% (positive control)", "setting": "IL-1α [1]; test substance at 5%, FIG. 2", "result": "much lower levels of reduction"}]}
{"smiles": "OC[C@H]1O[C@H](O[C@H]2O[C@H](CO)[C@@H](O)[C@H](O)[C@H]2O)[C@H](O)[C@@H](O)[C@@H]1O", "note": "[Trehalose B, trehalose]", "values": [{"measurement": "effect on IL-1α levels in Keratinocyte cells stimulated by 1% Methyl Salicylate", "setting": "IL-1α [1]; FIG. 5, lower concentrations", "result": "no effect"}, {"measurement": "effect on IL-1α levels in Keratinocyte cells stimulated by 1% Methyl Salicylate", "setting": "IL-1α [1]; any concentrations that were tested, FIGS. 2 and 3", "result": "no effect"}, {"measurement": "effect on IL-1α levels compared to MS 1% (positive control)", "setting": "IL-1α [1]; at any of 2.5%, 5%, 10%, FIG. 2", "result": "no effect"}, {"measurement": "inhibition of MS induced IL-1α release", "setting": "IL-1α [1]; concentration not stated, listed as trehalose B", "result": "no effect"}]}
{"smiles": "OC[C@H]1O[C@H](O[C@H]2O[C@H](CO)[C@@H](O)[C@H](O)[C@H]2O)[C@H](O)[C@@H](O)[C@@H]1O", "note": "[Trehalose C, trehalose]", "values": [{"measurement": "inhibition of MS induced IL-1α release", "setting": "IL-1α [1]; concentration not stated, listed as trehalose C", "result": "no effect"}]}
{"smiles": "[O]=[Zn]", "note": "[Zinc Oxide]", "values": [{"measurement": "MTT concentration levels in Keratinocyte cells (cell viability)", "setting": "Keratinocyte cells; concentrations at which ZnO inhibited MS stimulated IL-1α release, FIG. 7", "result": "no effect"}, {"measurement": "state of the cells", "setting": "Keratinocyte cells; high concentrations of zinc oxide, FIG. 4 experiment", "result": "the cells were not active"}, {"measurement": "effect on IL-1α levels in Keratinocyte cells stimulated by 1% Methyl Salicylate", "setting": "IL-1α [1]; FIG. 5, lower concentrations", "result": "significant dose dependent decrease"}, {"measurement": "IL-1α levels in Keratinocyte cells stimulated with 1% Methyl Salicylate", "setting": "IL-1α [1]; concentration levels 10%-1.25%, FIG. 4", "result": "large decrease"}, {"measurement": "MS stimulated IL-1α levels", "setting": "IL-1α [1]; high concentrations, FIG. 4", "result": "dramatic reduction"}, {"measurement": "inhibition of MS induced IL-1α release", "setting": "IL-1α [1]; concentration not given", "result": "able to block MS induced IL-1α production as effectively as trehalose A"}, {"measurement": "reduction in IL-1α concentrations induced by Methyl Salicylate", "setting": "IL-1α [1]; test substance at 0.000125%, FIG. 5", "result": "greater than 50%"}]}
